# Measured values: PubChem BioAssay AID2060495 (Molecular Pharmacology Branch, DTP, NCI, 2025)
# pIC50: −log10 of the molar value.
# Test system: 521955-158-R2-J5-PDC complex spheroid viability
# Assay: Anticancer human tumor 521955-158-R2-J5-PDC patient-derived pancreatic carcinoma cell line growth inhibition [GQUAD]
# Settings: for pIC50: curve of first compound; for viability, T/C: stronger effect = lower value
# Method in brief: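 Multi-cell-type spheroids of tumor cells with HUVEC and mesenchymal stem cells, treated with drug combinations. Concentrations descend in half-log steps from near clinical Cmax, or from 10 microM where Cmax is unknown; viability read-out.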
# [1] = second compound 0.0316 µM, first compound 0.0316 µM
# [2] = second compound 0.0316 µM, first compound 0.316 µM
# [3] = second compound 0.1 µM, first compound 0.0316 µM
# [4] = second compound 0.1 µM, first compound 0.316 µM
# [5] = second compound 0.316 µM, first compound 0.0316 µM
# [6] = second compound 0.316 µM, first compound 0.316 µM
# [7] = second compound 1 µM, first compound 0.0316 µM
# [8] = second compound 1 µM, first compound 0.316 µM
# [9] = second compound 3.16 µM, first compound 0.0316 µM
# [10] = second compound 3.16 µM, first compound 0.316 µM
# [11] = second compound 10 µM, first compound 0.0316 µM
# [12] = second compound 10 µM, first compound 0.316 µM
# [13] = second compound 0.0316 µM, first compound 0.1 µM
# [14] = second compound 0.0316 µM, first compound 1 µM
# [15] = second compound 0.0316 µM, first compound 3.16 µM
# [16] = second compound 0.0316 µM, first compound 10 µM
# [17] = second compound 0.1 µM, first compound 0.1 µM
# [18] = second compound 0.1 µM, first compound 1 µM
# [19] = second compound 0.1 µM, first compound 3.16 µM
# [20] = second compound 0.1 µM, first compound 10 µM
# [21] = second compound 0.316 µM, first compound 0.1 µM
# [22] = second compound 0.316 µM, first compound 1 µM
# [23] = second compound 0.316 µM, first compound 3.16 µM
# [24] = second compound 0.316 µM, first compound 10 µM
# [25] = second compound 1 µM, first compound 0.1 µM
# [26] = second compound 1 µM, first compound 1 µM
# [27] = second compound 1 µM, first compound 3.16 µM
# [28] = second compound 1 µM, first compound 10 µM
# [29] = second compound 3.16 µM, first compound 0.1 µM
# [30] = second compound 3.16 µM, first compound 1 µM
# [31] = second compound 3.16 µM, first compound 3.16 µM
# [32] = second compound 3.16 µM, first compound 10 µM
# [33] = second compound 10 µM, first compound 0.1 µM
# [34] = second compound 10 µM, first compound 1 µM
# [35] = second compound 10 µM, first compound 3.16 µM
# [36] = second compound 10 µM, first compound 10 µM
# 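Note: spheroids exposed to agents for one week before reading.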
# 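Throughout, for viability, T/C: 100% = DMSO vehicle control viability.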
smiles,measurement,setting,value
CC[C@@]1(O)C(=O)OCc2c1cc1n(c2=O)Cc2cc3c(CN(C)C)c(O)ccc3nc2-1 + CN(C)c1ccc(Nc2c3ccc(NC(=O)CCN4CCCC4)cc3nc3cc(NC(=O)CCN4CCCC4)ccc23)cc1,pIC50,second compound 0.0316 µM,6.92
same,pIC50,second compound 0.1 µM,7.03
same,pIC50,second compound 0.316 µM,7.06
same,pIC50,second compound 1 µM,7.01
same,pIC50,second compound 3.16 µM,7.10
same,pIC50,second compound 10 µM,7.10
same,"viability, T/C","second compound 0.0316 µM, first compound 0.000999 µM",106%
same,"viability, T/C","second compound 0.0316 µM, first compound 0.00316 µM",118%
same,"viability, T/C","second compound 0.0316 µM, first compound 0.00999 µM",110%
same,"viability, T/C",[1],86.7%
same,"viability, T/C","second compound 0.0316 µM, first compound 0.0999 µM",55.8%
same,"viability, T/C",[2],28.2%
same,"viability, T/C","second compound 0.1 µM, first compound 0.000999 µM",85.3%
same,"viability, T/C","second compound 0.1 µM, first compound 0.00316 µM",108%
same,"viability, T/C","second compound 0.1 µM, first compound 0.00999 µM",95.1%
same,"viability, T/C",[3],82.2%
same,"viability, T/C","second compound 0.1 µM, first compound 0.0999 µM",48.2%
same,"viability, T/C",[4],41.2%
same,"viability, T/C","second compound 0.316 µM, first compound 0.000999 µM",101%
same,"viability, T/C","second compound 0.316 µM, first compound 0.00316 µM",98.5%
same,"viability, T/C","second compound 0.316 µM, first compound 0.00999 µM",98.7%
same,"viability, T/C",[5],89.4%
same,"viability, T/C","second compound 0.316 µM, first compound 0.0999 µM",44.3%
same,"viability, T/C",[6],28.6%
same,"viability, T/C","second compound 1 µM, first compound 0.000999 µM",131%
same,"viability, T/C","second compound 1 µM, first compound 0.00316 µM",91.6%
same,"viability, T/C","second compound 1 µM, first compound 0.00999 µM",95.7%
same,"viability, T/C",[7],82.8%
same,"viability, T/C","second compound 1 µM, first compound 0.0999 µM",43.1%
same,"viability, T/C",[8],24.9%
same,"viability, T/C","second compound 3.16 µM, first compound 0.000999 µM",101%
same,"viability, T/C","second compound 3.16 µM, first compound 0.00316 µM",101%
same,"viability, T/C","second compound 3.16 µM, first compound 0.00999 µM",81.2%
same,"viability, T/C",[9],76.9%
same,"viability, T/C","second compound 3.16 µM, first compound 0.0999 µM",41.2%
same,"viability, T/C",[10],26.5%
same,"viability, T/C","second compound 10 µM, first compound 0.000999 µM",63.7%
same,"viability, T/C","second compound 10 µM, first compound 0.00316 µM",62.3%
same,"viability, T/C","second compound 10 µM, first compound 0.00999 µM",53.4%
same,"viability, T/C",[11],63.5%
same,"viability, T/C","second compound 10 µM, first compound 0.0999 µM",45.2%
same,"viability, T/C",[12],31.4%
Nc1ccn(C2OC(CO)C(O)C2(F)F)c(=O)n1 (stereo unspecified) + CN(C)c1ccc(Nc2c3ccc(NC(=O)CCN4CCCC4)cc3nc3cc(NC(=O)CCN4CCCC4)ccc23)cc1,pIC50,second compound 0.0316 µM,6.11
same,pIC50,second compound 0.1 µM,6.37
same,pIC50,second compound 0.316 µM,6.36
same,pIC50,second compound 1 µM,6.40
same,pIC50,second compound 3.16 µM,6.80
same,pIC50,second compound 10 µM,7.08
same,"viability, T/C",[1],76.5%
same,"viability, T/C",[13],73.5%
same,"viability, T/C",[2],66%
same,"viability, T/C",[14],45.1%
same,"viability, T/C",[15],24.1%
same,"viability, T/C",[16],12.6%
same,"viability, T/C",[3],76.6%
same,"viability, T/C",[17],76.5%
same,"viability, T/C",[4],54.5%
same,"viability, T/C",[18],32.3%
same,"viability, T/C",[19],19.5%
same,"viability, T/C",[20],14.7%
same,"viability, T/C",[5],65.2%
same,"viability, T/C",[21],66.7%
same,"viability, T/C",[6],56.9%
same,"viability, T/C",[22],31.1%
same,"viability, T/C",[23],17.1%
same,"viability, T/C",[24],14.2%
same,"viability, T/C",[7],71.7%
same,"viability, T/C",[25],58.7%
same,"viability, T/C",[8],57.1%
same,"viability, T/C",[26],25.9%
same,"viability, T/C",[27],12.5%
same,"viability, T/C",[28],12%
same,"viability, T/C",[9],61.6%
same,"viability, T/C",[29],52.8%
same,"viability, T/C",[10],43.2%
same,"viability, T/C",[30],22.4%
same,"viability, T/C",[31],12.5%
same,"viability, T/C",[32],11.9%
same,"viability, T/C",[11],64.8%
same,"viability, T/C",[33],39.9%
same,"viability, T/C",[12],41.1%
same,"viability, T/C",[34],27%
same,"viability, T/C",[35],17.2%
same,"viability, T/C",[36],11.6%
O=c1[nH]cc(F)c(=O)[nH]1 + CN(C)c1ccc(Nc2c3ccc(NC(=O)CCN4CCCC4)cc3nc3cc(NC(=O)CCN4CCCC4)ccc23)cc1,pIC50,second compound 0.0316 µM,< 5.00
same,pIC50,second compound 0.1 µM,< 5.00
same,pIC50,second compound 0.316 µM,< 5.00
same,pIC50,second compound 1 µM,< 5.00
same,pIC50,second compound 3.16 µM,< 5.00
same,pIC50,second compound 10 µM,< 5.00
same,"viability, T/C",[1],103%
same,"viability, T/C",[13],112%
same,"viability, T/C",[2],97.8%
same,"viability, T/C",[14],105%
same,"viability, T/C",[15],109%
same,"viability, T/C",[16],51.5%
same,"viability, T/C",[3],91.3%
same,"viability, T/C",[17],88.9%
same,"viability, T/C",[4],95.9%
same,"viability, T/C",[18],93.4%
same,"viability, T/C",[19],95%
same,"viability, T/C",[20],56.1%
same,"viability, T/C",[5],91.3%
same,"viability, T/C",[21],92.7%
same,"viability, T/C",[6],108%
same,"viability, T/C",[22],96.8%
same,"viability, T/C",[23],94.4%
same,"viability, T/C",[24],58.5%
same,"viability, T/C",[7],80.9%
same,"viability, T/C",[25],82.8%
same,"viability, T/C",[8],86.1%
same,"viability, T/C",[26],101%
same,"viability, T/C",[27],94.8%
same,"viability, T/C",[28],55.9%
same,"viability, T/C",[9],86.4%
same,"viability, T/C",[29],87.4%
same,"viability, T/C",[10],97.1%
same,"viability, T/C",[30],85%
same,"viability, T/C",[31],93.9%
same,"viability, T/C",[32],53.4%
same,"viability, T/C",[11],58.5%
same,"viability, T/C",[33],58.1%
same,"viability, T/C",[12],75.3%
same,"viability, T/C",[34],65.3%
same,"viability, T/C",[35],66.1%
same,"viability, T/C",[36],49.5%
